In PubChem BioAssay AID1963826 (Molecular Pharmacology Branch, DTP, NCI, 2024):

Tested on: 926638-142-R-J1-PDC complex spheroid viability
Experiment: Anticancer human tumor 926638-142-R-J1-PDC patient-derived endometrial carcinoma cell line growth inhibition [POLQ]
Conditions: for IC50: curve of first compound; for viability, T/C: stronger effect = lower value
In short: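 Complex spheroid viability model combining PDC tumour cells with endothelial (HUVEC) and MSC stromal cells. Novobiocin, ART-558 or RP6685 were tested singly and in combination with standard and investigational anticancer drugs. Each was titrated in half-log steps from near clinical Cmax, or from 10 microM where Cmax was unknown.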
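Also: spheroids exposed to drugs for one week before readout.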
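For viability, T/C in this document: percent viability relative to DMSO vehicle control wells set as 100%.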

## CC(=O)O[C@H]1C(=O)[C@@]2(C)[C@H]([C@H](OC(=O)c3ccccc3)[C@]3(O)C[C@H](OC(=O)[C@H](O)[C@@H](NC(=O)c4ccccc4)c4ccccc4)C(C)=C1C3(C)C)[C@]1(OC(C)=O)CO[C@@H]1C[C@@H]2O + Cc1cccc(N(C)C(=O)C2C(O)CCN2c2nc(C)cc(C(F)(F)F)c2C#N)c1
Second compound 0.0316 µM
  IC50: 659 nM
Second compound 0.1 µM
  IC50: > 3000 nM
Second compound 0.316 µM
  IC50: 800 nM
Second compound 1 µM
  IC50: 2380 nM
Second compound 3.16 µM
  IC50: 1300 nM
Second compound 10 µM
  IC50: 817 nM
Second compound 0.0316 µM, first compound 0.00949 µM
  viability, T/C: 88.1%
Second compound 0.0316 µM, first compound 0.03 µM
  viability, T/C: 62.9%
Second compound 0.0316 µM, first compound 0.0949 µM
  viability, T/C: 56.8%
Second compound 0.0316 µM, first compound 0.3 µM
  viability, T/C: 56.1%
Second compound 0.0316 µM, first compound 0.949 µM
  viability, T/C: 53.9%
Second compound 0.0316 µM, first compound 3 µM
  viability, T/C: 41.5%
Second compound 0.1 µM, first compound 0.00949 µM
  viability, T/C: 87.5%
Second compound 0.1 µM, first compound 0.03 µM
  viability, T/C: 65.8%
Second compound 0.1 µM, first compound 0.0949 µM
  viability, T/C: 62.1%
Second compound 0.1 µM, first compound 0.3 µM
  viability, T/C: 52.4%
Second compound 0.1 µM, first compound 0.949 µM
  viability, T/C: 58.3%
Second compound 0.1 µM, first compound 3 µM
  viability, T/C: 51.4%
Second compound 0.316 µM, first compound 0.00949 µM
  viability, T/C: 79.2%
Second compound 0.316 µM, first compound 0.03 µM
  viability, T/C: 77%
Second compound 0.316 µM, first compound 0.0949 µM
  viability, T/C: 66.8%
Second compound 0.316 µM, first compound 0.3 µM
  viability, T/C: 56.1%
Second compound 0.316 µM, first compound 0.949 µM
  viability, T/C: 50.5%
Second compound 0.316 µM, first compound 3 µM
  viability, T/C: 43.2%
Second compound 1 µM, first compound 0.00949 µM
  viability, T/C: 76.3%
Second compound 1 µM, first compound 0.03 µM
  viability, T/C: 68.6%
Second compound 1 µM, first compound 0.0949 µM
  viability, T/C: 61.7%
Second compound 1 µM, first compound 0.3 µM
  viability, T/C: 57.6%
Second compound 1 µM, first compound 0.949 µM
  viability, T/C: 67.2%
Second compound 1 µM, first compound 3 µM
  viability, T/C: 43.1%
Second compound 3.16 µM, first compound 0.00949 µM
  viability, T/C: 70.6%
Second compound 3.16 µM, first compound 0.03 µM
  viability, T/C: 61%
Second compound 3.16 µM, first compound 0.0949 µM
  viability, T/C: 55.4%
Second compound 3.16 µM, first compound 0.3 µM
  viability, T/C: 55.4%
Second compound 3.16 µM, first compound 0.949 µM
  viability, T/C: 57%
Second compound 3.16 µM, first compound 3 µM
  viability, T/C: 43.8%
Second compound 10 µM, first compound 0.00949 µM
  viability, T/C: 72.8%
Second compound 10 µM, first compound 0.03 µM
  viability, T/C: 63.2%
Second compound 10 µM, first compound 0.0949 µM
  viability, T/C: 55.9%
Second compound 10 µM, first compound 0.3 µM
  viability, T/C: 57.5%
Second compound 10 µM, first compound 0.949 µM
  viability, T/C: 50.8%
Second compound 10 µM, first compound 3 µM
  viability, T/C: 44.2%

## CCc1c2c(nc3ccc(O)cc13)-c1cc3c(c(=O)n1C2)COC(=O)[C@]3(O)CC + Cc1cccc(N(C)C(=O)C2C(O)CCN2c2nc(C)cc(C(F)(F)F)c2C#N)c1
Second compound 0.0316 µM
  IC50: 6.18 nM
Second compound 0.1 µM
  IC50: 11.9 nM
Second compound 0.316 µM
  IC50: 12 nM
Second compound 1 µM
  IC50: 9.83 nM
Second compound 3.16 µM
  IC50: 12.2 nM
Second compound 10 µM
  IC50: 10.7 nM
Second compound 0.0316 µM, first compound 0.00316 µM
  viability, T/C: 55.6%
Second compound 0.0316 µM, first compound 0.01 µM
  viability, T/C: 43.5%
Second compound 0.0316 µM, first compound 0.0316 µM
  viability, T/C: 38%
Second compound 0.0316 µM, first compound 0.1 µM
  viability, T/C: 17.1%
Second compound 0.0316 µM, first compound 0.316 µM
  viability, T/C: 11.1%
Second compound 0.0316 µM, first compound 1 µM
  viability, T/C: 5.47%
Second compound 0.1 µM, first compound 0.00316 µM
  viability, T/C: 75.3%
Second compound 0.1 µM, first compound 0.01 µM
  viability, T/C: 51.9%
Second compound 0.1 µM, first compound 0.0316 µM
  viability, T/C: 35.1%
Second compound 0.1 µM, first compound 0.1 µM
  viability, T/C: 17.8%
Second compound 0.1 µM, first compound 0.316 µM
  viability, T/C: 9.35%
Second compound 0.1 µM, first compound 1 µM
  viability, T/C: 4.26%
Second compound 0.316 µM, first compound 0.00316 µM
  viability, T/C: 69.8%
Second compound 0.316 µM, first compound 0.01 µM
  viability, T/C: 52.8%
Second compound 0.316 µM, first compound 0.0316 µM
  viability, T/C: 35.6%
Second compound 0.316 µM, first compound 0.1 µM
  viability, T/C: 19.3%
Second compound 0.316 µM, first compound 0.316 µM
  viability, T/C: 12.3%
Second compound 0.316 µM, first compound 1 µM
  viability, T/C: 4.42%
Second compound 1 µM, first compound 0.00316 µM
  viability, T/C: 69.6%
Second compound 1 µM, first compound 0.01 µM
  viability, T/C: 50.9%
Second compound 1 µM, first compound 0.0316 µM
  viability, T/C: 29.8%
Second compound 1 µM, first compound 0.1 µM
  viability, T/C: 17%
Second compound 1 µM, first compound 0.316 µM
  viability, T/C: 13.9%
Second compound 1 µM, first compound 1 µM
  viability, T/C: 4.44%
Second compound 3.16 µM, first compound 0.00316 µM
  viability, T/C: 62.8%
Second compound 3.16 µM, first compound 0.01 µM
  viability, T/C: 54%
Second compound 3.16 µM, first compound 0.0316 µM
  viability, T/C: 35.1%
Second compound 3.16 µM, first compound 0.1 µM
  viability, T/C: 21.1%
Second compound 3.16 µM, first compound 0.316 µM
  viability, T/C: 9.95%
Second compound 3.16 µM, first compound 1 µM
  viability, T/C: 5.61%
Second compound 10 µM, first compound 0.00316 µM
  viability, T/C: 69.4%
Second compound 10 µM, first compound 0.01 µM
  viability, T/C: 50.5%
Second compound 10 µM, first compound 0.0316 µM
  viability, T/C: 34.6%
Second compound 10 µM, first compound 0.1 µM
  viability, T/C: 22.5%
Second compound 10 µM, first compound 0.316 µM
  viability, T/C: 10.4%
Second compound 10 µM, first compound 1 µM
  viability, T/C: 4.3%
